# Reference: patent publication US20150313921A1, “Cancer Treatment Methods” (PLEDPHARMA AB, priority 2012, published 2015)
# Read-outs that look alike come from different tables or passages of the source.
# Tests used:
# [1] = test system: ovarian carcinoma A2780 cells; test: MTT viability assay, A2780 cells; settings: for cytotoxic effect in A2780 cells: alone (MnDPDP: alone or with Dx 3 nM or 30 nM), 48 h, MTT; for EC50: Homo sapiens, A2780, 48 h
# Experimental: A2780 cells were co-incubated with MnDPDP, DPDP, and/or Dx. The viability of cells was measured using the methylthiazoletetrazolium (MTT) assay. Briefly, 8000 cells were seeded per well on a 96-well plate and grown overnight under standards. Cells were then exposed for 48 hours to various concentrations of MnDPDP, DPDP, and/or Dx at 37° C. The viability of the cells was then assessed by adding 5 mg/ml MTT to a final concentration of 0.5 mg/ml and incubating cells for a further 4 hours at 37° C. The blue formazan that is formed by mitochondrial dehydrogenases of viable cells was then dissolved overnight at 37° C. by adding 10% SDS and 10 mM HCl to a final concentration of 5% SDS and 5 mM HCl. Finally, the absorbance of the solution was read at 570 nm with a reference at 670 nm in a microplate reader (SpectraMax 340; Molecular Devices, Sunnyvale, Calif.) connected to an Apple Macintosh computer running the program Softmax Pro V1.2.0 (Molecular Devices). Viability is expressed as percent absorbance (A570 nm-A670 nm) relative to the untreated control cells. All values were given as arithmetic means±SD for in vitro cell MTT viability data. In vitro responses of Dx, MnDPDP, and/or DPDP with regard to viability are presented as concentration-effect curves. […] From this analysis, the low and Q7 high pD2 values (negative log of the concentration of Dx that produces half of its maximal inhibition in the two phases, −logIC50) were calculated.
# [2] = test system: human non-small cell lung cancer (NSCLC) U1810 cells; test: MTT viability assay, U1810 cells; type: cell-based; settings: for IC50: 48 h exposure, read-out: IC50 (concentration causing 50% inhibition of viability)
# Experimental: The viability of cells was measured using the MTT assay. […] Cells were then exposed for 48 h to 1-1,000 μM DPDP (lot #RDL02090206) or MnDPDP (lot #02090106). […] The viability of U1810 cells in the presence of increasing concentrations of DPDP or MnDPDP is presented as concentration-response curves (mean±S.D.). The individual curves were fitted to the sigmoidal normalized response logistic equation (Graphpad Prism, version 5.02). From this analysis the concentrations causing 50% inhibition (IC50) of the test substances were calculated.
# [3] = Mn2+ versus Zn2+
# [4] = cited from earlier work
# infarct size = settings: pigs; MnPLED 3 μmol/kg; cited from earlier work
# [5] = pigs, ten minutes after injection; cited from earlier work
# [6] = cited from earlier work; remark: listed apart in the source
smiles,measurement,setting,value
"Cc1ncc(COP(=O)(O)O)c(CN(CCN(CC(=O)O)Cc2c(COP(=O)(O)O)cnc(C)c2O)CC(=O)O)c1O [DPDP, N,N′-bis-(pyridoxal-5-phosphate)-ethylenediamine-N,N′-diacetic acid]",cancer cells killed,"[1]; 30 μM, A2780 cells",approximately 50%
same,cancer cells killed,"[1]; 100 μM, A2780 cells",killing almost all cells
same,additive effect to the cytotoxic effect of Dx alone,"[1]; DPDP 10 μM or 30 μM added to Dx, A2780 cells",did not reveal any obvious additive effect
same,cytotoxic effect in A2780 cells,[1],had cytotoxic effects
same,IC50 ratio between MnDPDP and DPDP (times more potent than MnDPDP),[2]; 48 h,17 times
same,IC50,[2],52.8 µM
same,Mn2+ dissociates more readily than Zn2+ (fold),[3],about 1000 times
"COc1cccc2c1C(=O)c1c(O)c3c(c(O)c1C2=O)C[C@@](O)(C(=O)CO)C[C@@H]3O[C@H]1C[C@H](N)[C@H](O)[C@H](C)O1 [Dx, Doxorubicin, reference compound]",EC50,"[1]; read-out: pD2 (-logEC50), first phase (high pD2) of biphasic curve (converted)",0.00545 µM
same,EC50,"[1]; read-out: pD2 (-logEC50), second phase (low pD2) of biphasic curve (converted)",0.225 µM
Cc1[nH+]cc(COP(=O)([O-])[O-])c(CN(CCN(CC(=O)[O-])Cc2c(COP(=O)([O-])O)c[nH+]c(C)c2O)CC(=O)[O-])c1O.[Mn].[Na+].[Na+].[Na+] [MnDPDP],cytotoxic effect in A2780 cells,[1],did not have any obvious cytotoxic effects
same,administered manganese released,[4]; intravenous injection into humans,about 80%
same,injected manganese that stays bound to the chelator,"[4]; man, for a considerable amount of time",about 30%
same,injected MnDPDP transformed into MnPLED,[4]; shortly after intravenous injection in man,about 30%
same,effect on infarct size,infarct size,did not reduce the infarct size
same,IC50,[2],437 µM
same,replacement of manganese with zinc,[5],all manganese has been replaced with zinc
"Cc1ncc(CO)c(CN(CCN(CC(=O)O)Cc2c(CO)cnc(C)c2O)CC(=O)O)c1O [PLED, N,N′-dipyridoxyl ethylenediamine-N,N′-diacetic acid]",stability constant with Mn2+,[6]; Mn2+,12.56 logK
same,stability constant with Zn2+,[6]; Zn2+,16.68 logK
same,Mn2+ dissociates more readily than Zn2+ (fold),[3],about 1000 times
